Reference: patent US10287276B2, “Heteroaryl-1,2,4-triazole and heteroaryl-tetrazole compounds for controlling ectoparasites” (Elanco Tiergesundheit AG, priority 2016, dated 2019)

What was measured:
[1] = system: Lucilla Cuprina (Australian sheep blowfly); assay: Activity in vitro against Lucilla cuprina (Australian sheep blowfly), Assay A; settings: Lucilia cuprina, 96 h; at 32 ppm; eggs on agar-based medium, 4 days at 28° C. and 60% relative humidity; read-out: efficacy (EC80)
Experimental: Activity in vitro against Lucilla Cuprina (Australian sheep blowfly)—Assay A
Freshly laid blowfly eggs are used to seed a suitably formatted microplate containing the test substances to be evaluated for antiparasitic activity. Each compound is tested by serial dilution in order to determine its minimum efficacy dose. The test compounds are embedded in an agar-based nutritive medium allowing the full development of the eggs into 3rd instar larvae. The incubation lasts for 4 days at 28° C. and 60% relative humidity. Egg-hatching and ensuing larval development are also recorded to identify a possible growth-regulating activity.

[2] = system: Engorged Female Rhipicephalus microplus (Cattle Tick); assay: Activity in vitro against engorged female Rhipicephalus microplus (cattle tick), contact test; settings: 672 h, organophosphorous-resistant Ultimo strain, evaluation 28 days later on mortality, oviposition and hatched larvae, read-out: efficacy (EC80)
Experimental: Activity In Vitro Against Engorged Female Rhipicephalus microplus (Cattle Tick)
A contact test is performed by pre-coating 6-well microplates with serial dilution of the compound to be evaluated for anti-parasitic activity. 10 engorged female ticks of the organophosphorous-resistant Ultimo strain are distributed to each well in triplicates. Plates are then incubated at 28° C. and 80% relative humidity. Evaluation takes place 28 days later based on mortality, oviposition and hatched larvae. […] Activity In Vivo Against Rhipicephalus sanguineus Nymphs on Mongolian Gerbils (Meriones unguiculatus) (Spray Application)

[3] = system: Rhipicephalus sanguineus Nymphs; assay: Activity in vivo against Rhipicephalus sanguineus nymphs on Mongolian gerbils; settings: topical, 0 h, pour on application day 0, tick number reduction vs placebo, Abbott's formula, read-out: efficacy (EC90)
Experimental: On day 0, gerbils are treated with the test compound at a given dose by pour on application. On day +1 (+2), the animals are infested with nymphs of R. sanguineus. Ticks are left on the animals until full repletion. Seven days after infestation nymphs dropped off fully engorged are collected and counted. They are kept until molting to also evaluate growth regulating activity of the test compound. Efficacy in killing (and growth regulating) is expressed as a tick number (and molted tick number) reduction in comparison with a placebo treated group, using the Abbott's formula:
n=number of live ticks. T=treated group. Co=control/placebo group.

[4] = system: Ctenocephalides Felis (Cat Flea); assay: Activity in vitro against Ctenocephalides felis (cat flea), Assay A; settings: Ctenocephalides felis; at 100 ppm; adult fleas fed on treated blood for 24 h; dead fleas counted; read-out: efficacy (EC80)
Experimental: Activity In Vitro Against Ctenocephalides Felis (Cat Flea)—Assay A
A mixed adult population of fleas is placed in a suitably formatted 96-well plate allowing fleas to access and feed on treated blood via an artificial feeding system. Fleas are fed on treated blood for 24 h, after which the compound effect is recorded. Insecticidal activity is determined on the basis of the number of dead fleas recovered from the feeding system.

[5] = system: Rhipicephalus sanguineus (Dog Tick); assay: Activity in vitro against Rhipicephalus sanguineus (dog tick), Assay A, contact test; settings: Rhipicephalus sanguineus, 168 h, at 100 ppm, adult ticks, 28° C. and 80% relative humidity for 7 days, read-out: efficacy (EC80)
Experimental: Activity In Vitro Against Rhipicephalus sanguineus (Dog Tick)—Assay A
A contact test is performed by pre-coating microplate with serial dilution of compound allowing evaluating anti-parasitic activity by contact against ticks. A mixed adult tick population is then distributed to each well of the plate and incubated at 28° C. and 80% relative humidity for 7 days, during which the effect of the test compound is monitored. Acaricidal activity is confirmed if and when adult ticks are dead.

Lice (Polyplax serrata) = assay: Activity in vivo against lice (Polyplax serrata) in mice (topical); settings: pour-on application, live lice on day +4 and +14, Henderson & Tilton formula, read-out: efficacy (EC90)
Experimental: Activity In Vivo Against Lice (Polyplax serrata) in Mice (Topical) Mice naturally infected with P. serrata are treated with the formulated test compound on day 0 by pour-on application. On day +4 and +14, efficacy is evaluated by counting the number of live lice under a binocular. Efficacy at the two time points is expressed as a comparison of lice numbers counted on the same mouse before treatment, using the Henderson & Tilton formula, taking also into account lice numbers found on mice treated with the empty formulation (placebo group): [formula] n=number of lice, T=treated group, Co=control/placebo group.

[6] = system: Ctenocephalides Felis (Cat Flea); assay: Activity in vitro against Ctenocephalides felis (cat flea), Assay B; settings: Ctenocephalides felis; at 10 ppm in bovine blood; % mortality at 48 hours post infestation; read-out: efficacy (EC50)
Experimental: Activity In Vitro Against Ctenocephalides Felis (Cat Flea)—Assay B
Test compounds are added to organic bovine blood contained in an artificial feeding container. Compounds with known insecticidal activity are included to serve as positive controls. Newly emerged unfed adult fleas from a laboratory colony are aspirated into each vial. The test cages are maintained using the artificial feeding apparatus to allow ingestion of compound. Fleas are evaluated for % mortality at 48 hours post infestation. Fleas showing normal movement and/or jumping ability are considered viable and those showing no movement are scored as dead.

CC(c1ncnn1-c1ncccn1)N(CCF)C(=O)c1cc(Cl)cc(C(F)(F)F)c1 (stereo not drawn) [Example 23, 3-Chloro-N-(2-fluoroethyl)-N-[1-(2-pyrimidin-2-yl-1,2,4-triazol-3-yl)ethyl]-5-(trifluoromethyl)benzamide]
pest or weed control at 32 ppm [1]: > 80% | pest or weed control at 200 ppm [2]: > 80% | inhibition in vivo at 32 mg/kg [3]: > 90%

C[C@@H](c1ncnn1-c1ncccn1)N(CC1CC1)C(=O)c1cc(C(F)(F)F)cc(C(F)(F)F)c1 [Example 49, N-(Cyclopropylmethyl)-N-[(1S)-1-(2-pyrimidin-2-yl-1,2,4-triazol-3-yl)ethyl]-3,5-bis(trifluoromethyl)benzamide]
pest or weed control at 100 ppm [4]: > 80% | pest or weed control at 32 ppm [1]: > 80% | pest or weed control at 100 ppm [5]: > 80% | inhibition in vivo at 32 mg/kg [3]: > 90% | inhibition in vivo at 32 mg/kg (Lice (Polyplax serrata)): > 90%

CC(c1ncnn1-c1ncccn1)N(CCC(F)(F)F)C(=O)c1cc(Cl)cc(C(F)(F)F)c1 (stereo not drawn) [Example 26, 3-Chloro-N-[1-(2-pyrimidin-2-yl-1,2,4-triazol-3-yl)ethyl]-5-(trifluoromethyl)-N-(3,3,3-trifluoropropyl)benzamide]
pest or weed control at 100 ppm [4]: > 80% | pest or weed control at 32 ppm [1]: > 80% | pest or weed control at 100 ppm [5]: > 80% | inhibition in vivo at 32 mg/kg [3]: > 90%

CC(c1ncnn1-c1ccccn1)N(CC1CC1)C(=O)c1cncc(C(F)(F)F)c1 (stereo not drawn) [Example 9, N-(Cyclopropylmethyl)-N-[1-[2-(2-pyridyl)-1,2,4-triazol-3-yl]ethyl]-5-(trifluoromethyl)pyridine-3-carboxamide]
pest or weed control at 100 ppm [4]: > 80% | pest or weed control at 32 ppm [1]: > 80% | pest or weed control at 100 ppm [5]: > 80% | pest or weed control at 200 ppm [2]: > 80% | inhibition in vivo at 32 mg/kg [3]: > 90%

CCCN(C(=O)c1cc(Cl)cc(C(F)(F)F)c1)C(C)c1ncnn1-c1ccccn1 (stereo not drawn) [Example 8, 3-Chloro-N-propyl-N-[1-[2-(2-pyridyl)-1,2,4-triazol-3-yl]ethyl]-5-(trifluoromethyl)benzamide]
pest or weed control at 100 ppm [4]: > 80% | pest or weed control at 32 ppm [1]: > 80% | pest or weed control at 200 ppm [2]: > 80% | inhibition in vivo at 32 mg/kg [3]: > 90%

C[C@@H](c1ncnn1-c1ncccn1)N(CC1CC1)C(=O)c1cncc(C(F)(F)F)c1 [Example 45, N-(Cyclopropylmethyl)-N-[(1S)-1-(2-pyrimidin-2-yl-1,2,4-triazol-3-yl)ethyl]-5-(trifluoromethyl)pyridine-3-carboxamide]
pest or weed control at 100 ppm [4]: > 80% | pest or weed control at 32 ppm [1]: > 80% | pest or weed control at 200 ppm [2]: > 80% | inhibition in vivo at 32 mg/kg [3]: > 90%

C#CCN(C(=O)c1cc(C(F)(F)F)cc(C(F)(F)F)c1)C(C)c1ncnn1-c1ccccn1 (stereo not drawn) [Example 15]
pest or weed control at 100 ppm [4]: > 80% | pest or weed control at 32 ppm [1]: > 80% | pest or weed control at 100 ppm [5]: > 80% | pest or weed control at 200 ppm [2]: > 80% | inhibition in vivo at 32 mg/kg (Lice (Polyplax serrata)): > 90%

CC(c1ncnn1-c1ncccn1)N(C)C(=O)c1cccc(C(N)=S)c1 (stereo not drawn) [Example 71, 3-Carbamothioyl-N-methyl-N-[1-(2-pyrimidin-2-yl-1,2,4-triazol-3-yl)ethyl]benzamide]
pest or weed control at 10 ppm [6]: > 50%

C[C@@H](c1ncnn1-c1ccccn1)N(CC1CC1)C(=O)c1cc(C(F)(F)F)cc(C(F)(F)F)c1 [Example 44, N-(Cyclopropylmethyl)-N-[(1S)-1-[2-(2-pyridyl)-1,2,4-triazol-3-yl]ethyl]-3,5-bis(trifluoromethyl)benzamide]
pest or weed control at 100 ppm [4]: > 80% | pest or weed control at 32 ppm [1]: > 80% | pest or weed control at 200 ppm [2]: > 80% | inhibition in vivo at 32 mg/kg [3]: > 90%

CC(c1ncnn1-c1ncccn1)N(CCC(F)(F)F)C(=O)c1cncc(C(F)(F)F)c1 (stereo not drawn) [Example 29, N-[1-(2-Pyrimidin-2-yl-1,2,4-triazol-3-yl)ethyl]-5-(trifluoromethyl)-N-(3,3,3-trifluoropropyl)pyridine-3-carboxamide]
pest or weed control at 100 ppm [4]: > 80% | pest or weed control at 32 ppm [1]: > 80% | pest or weed control at 100 ppm [5]: > 80% | inhibition in vivo at 32 mg/kg [3]: > 90%

CC(c1ncnn1-c1ncccn1)N(CC1CC1)C(=O)c1cccc(C#N)c1 (stereo not drawn) [Example 38, 3-Cyano-N-(cyclopropylmethyl)-N-[1-(2-pyrimidin-2-yl-1,2,4-triazol-3-yl)ethyl]benzamide]
pest or weed control at 100 ppm [4]: > 80% | pest or weed control at 32 ppm [1]: > 80% | pest or weed control at 100 ppm [5]: > 80% | pest or weed control at 200 ppm [2]: > 80% | inhibition in vivo at 32 mg/kg (Lice (Polyplax serrata)): > 90%

CC(c1ncnn1-c1ncccn1)N(CC1CC1)C(=O)c1cncc(C(F)(F)F)c1 (stereo not drawn) [Example 28, N-(Cyclopropylmethyl)-N-[1-(2-pyrimidin-2-yl-1,2,4-triazol-3-yl)ethyl]-5-(trifluoromethyl)pyridine-3-carboxamide]
pest or weed control at 100 ppm [4]: > 80% | pest or weed control at 32 ppm [1]: > 80% | pest or weed control at 100 ppm [5]: > 80% | inhibition in vivo at 32 mg/kg [3]: > 90% | inhibition in vivo at 32 mg/kg (Lice (Polyplax serrata)): > 90%

CC(c1ncnn1-c1ncccn1)N(CCCF)C(=O)c1cc(Cl)cc(C(F)(F)F)c1 (stereo not drawn) [Example 24, 3-Chloro-N-(3-fluoropropyl)-N-[1-(2-pyrimidin-2-yl-1,2,4-triazol-3-yl)ethyl]-5-(trifluoromethyl)benzamide]
pest or weed control at 100 ppm [4]: > 80% | pest or weed control at 32 ppm [1]: > 80% | pest or weed control at 100 ppm [5]: > 80% | pest or weed control at 200 ppm [2]: > 80% | inhibition in vivo at 32 mg/kg (Lice (Polyplax serrata)): > 90%

C#CCN(C(=O)c1cc(Cl)cc(OC(F)(F)F)c1)C(C)c1ncnn1-c1ncccn1 (stereo not drawn) [Example 36, 3-Chloro-N-prop-2-ynyl-N-[1-(2-pyrimidin-2-yl-1,2,4-triazol-3-yl)ethyl]-5-(trifluoromethoxy)-benzamide]
pest or weed control at 100 ppm [4]: > 80% | pest or weed control at 32 ppm [1]: > 80% | pest or weed control at 100 ppm [5]: > 80% | pest or weed control at 200 ppm [2]: > 80% | inhibition in vivo at 32 mg/kg (Lice (Polyplax serrata)): > 90%

CC(NC(=O)c1cccc(C#N)c1)c1ncnn1-c1ncccn1 (stereo not drawn) [Example 52, 3-Cyano-N-[1-(2-pyrimidin-2-yl-1,2,4-triazol-3-yl)ethyl]benzamide]
pest or weed control at 10 ppm [6]: > 50%

CC(c1ncnn1-c1ncccn1)N(CCCF)C(=O)c1cncc(C(F)(F)F)c1 (stereo not drawn) [Example 31, N-(3-Fluoropropyl)-N-[1-(2-pyrimidin-2-yl-1,2,4-triazol-3-yl)ethyl]-5-(trifluoromethyl)pyridine-3-carboxamide]
pest or weed control at 100 ppm [4]: > 80% | pest or weed control at 32 ppm [1]: > 80% | pest or weed control at 100 ppm [5]: > 80% | inhibition in vivo at 32 mg/kg [3]: > 90%

CC(c1ncnn1-c1ccccn1)N(CC#N)C(=O)c1cc(C(F)(F)F)cc(C(F)(F)F)c1 (stereo not drawn) [Example 14, N-(Cyanomethyl)-N-[1-[2-(2-pyridyl)-1,2,4-triazol-3-yl]ethyl]-3,5-bis(trifluoromethyl)benzamide]
pest or weed control at 100 ppm [4]: > 80% | pest or weed control at 32 ppm [1]: > 80% | pest or weed control at 100 ppm [5]: > 80% | pest or weed control at 200 ppm [2]: > 80% | inhibition in vivo at 32 mg/kg [3]: > 90%
